Measurements published in publication PMC9782603 (Viruses, 2022).
Read-outs that look alike come from different tables or passages of the source.

How the values were obtained:
[1] = alamarBlue reduction cytotoxicity assay in replicon cells; format: cell-based; settings: human, HCV Replicon 1b cells
[2] = system: HCV GT 1b subgenomic reporter replicon (strain Con1); test: HCV GT 1b subgenomic replicon luciferase antiviral assay in Huh5-2 cells; format: cell-based; settings: Hepatitis C virus, GT1B, Huh-5-2, 72 h, read-out: EC50 HCV Replicon 1b
[3] = system: HCV GT 3a (strain S52) replicon; test: HCV GT 3a subgenomic replicon luciferase antiviral assay in Huh7.5-3a cells; format: cell-based; settings: Hepatitis C virus, GT3A, 72 h, read-out: EC50 HCV Replicon 3a
[4] = system: HCV GT 4a (strain ED43) replicon; test: HCV GT 4a subgenomic replicon luciferase antiviral assay in Huh7.5-4a cells; format: cell-based; settings: Hepatitis C virus, GT4A, 72 h, read-out: EC50 HCV Replicon 4a
HCV GT 2a = test: Activity against HCV GT 2a (data not shown); format: cell-based
NS5B = settings: cited from earlier work
HCV GT-1b replicon = HCV GT-1b replicon luciferase reporter assay (n ≥ 2); cited from earlier work
[5] = Huh5-2, GT 1b (Con1), F-Luc, 3 days
[6] = Huh7.5-3a, GT 3a (S52), F-Luc, 3 days
[7] = Huh7.5-4a, GT 4a (ED43), F-Luc, 3 days
[8] = reported NS5B TP-2 inhibitors, Figure 1

SMILES | CC50 at 3 days [1] [µM] | EC50 [2, 5] [µM] | EC50 [3, 6] [µM] | EC50 [4, 7] [µM] | melting point [°C] | EC50 [2] [µM] | activity against GT 2a (HCV GT 2a) | EC50 [3] [µM] | EC50 [4] [µM] | IC50 (NS5B; enzymatic assays) [µM] | IC50 (NS5B; [8]) [µM] | EC50 (HCV GT-1b replicon) [µM]
O=C(O)c1cc([N+](=O)[O-])ccc1Nc1ccccc1 [1a, 5-nitro-2-(phenylamino)-benzoic acid] | > 200 | > 10 | > 10 | > 10 | – | – | – | – | – | – | – | –
Cc1cccc(Nc2ccc([N+](=O)[O-])cc2C(=O)O)c1 [1b, 5-nitro-2-(m-tolylamino)benzoic acid] | > 200 | > 10 | > 10 | > 10 | – | – | – | – | – | – | – | –
NC(=O)c1cc([N+](=O)[O-])ccc1Nc1ccccc1 [3a, 5-nitro-2-(phenylamino)benzamide] | 70.69 ± 0.04 | > 10 | > 10 | > 10 | – | – | – | – | – | – | – | –
Cc1cccc(Nc2ccc([N+](=O)[O-])cc2C(N)=O)c1 [3b, 5-Nitro-2-(m-tolylamino) benzamide] | 161.3 ± 0.07 | > 10 | > 10 | > 10 | 188 to 190 | – | – | – | – | – | – | –
O=c1ncn(-c2ccccc2)c2ccc([N+](=O)[O-])cc12 [4a, 6-Nitro-1-phenylquinazolin-4(1H)-one] | > 200 | > 10 | > 10 | > 10 | 246 to 248 | – | – | – | – | – | – | –
Cc1cccc(-n2cnc(=O)c3cc([N+](=O)[O-])ccc32)c1 [4b, 6-Nitro-1-(m-tolyl)quinazolin-4(1H)-one] | 64.9 ± 0.03 | > 10 | > 10 | > 10 | 185 | – | – | – | – | – | – | –
Nc1ccc2c(c1)c(=O)ncn2-c1ccccc1 [5a, 6-Amino-1-phenylquinazolin-4(1H)-one] | > 200 | 9.84 ± 0.57 | > 10 | > 10 | 293 to 295 | – | – | – | – | – | – | –
Cc1cccc(-n2cnc(=O)c3cc(N)ccc32)c1 [5b, 6-Amino-1-(m-tolyl)quinazolin-4(1H)-one] | > 200 | > 10 | > 10 | > 10 | 288 to 290 | – | – | – | – | – | – | –
O=C(CCl)Nc1ccc2c(c1)c(=O)ncn2-c1ccccc1 [6a, 2-Chloro-N-(4-oxo-1-phenyl-1,4-dihydroquinazolin-6-yl)acetamide] | 104.2 ± 0.03 | > 10 | > 10 | > 10 | < 300 | – | – | – | – | – | – | –
Cc1cccc(-n2cnc(=O)c3cc(NC(=O)CCl)ccc32)c1 [6b, 2-Chloro-N-(4-oxo-1-(m-tolyl)-1,4-dihydroquinazolin-6-yl)acetamide] | 143 ± 14.2 | > 10 | > 10 | > 10 | 290 | – | – | – | – | – | – | –
Cc1ccc(OCC(=O)Nc2ccc3c(c2)c(=O)ncn3-c2ccccc2)cc1 [7a, N-(4-Oxo-1-phenyl-1,4-dihydroquinazolin-6-yl)-2-(p-tolyloxy)acetamide] | 84.7 ± 14 | > 10 | > 10 | > 10 | 220 | – | – | – | – | – | – | –
O=C(COc1ccc(Cl)cc1)Nc1ccc2c(c1)c(=O)ncn2-c1ccccc1 [7b, 2-(4-Chlorophenoxy)-N-(4-oxo-1-phenyl-1,4-dihydroquinazolin-6-yl)acetamide] | 154 ± 3.71 | > 10 | > 10 | > 10 | 262 | – | – | – | – | – | – | –
Cc1cc(OCC(=O)Nc2ccc3c(c2)c(=O)ncn3-c2ccccc2)ccc1Cl [7c, 2-(4-Chloro-3-methylphenoxy)-N-(4-oxo-1-phenyl-1,4-dihydroquinazolin-6-yl)acetamide] | 75.2 ± 9.24 | > 10 | > 10 | > 10 | 255 | – | – | – | – | – | – | –
Cc1ccc(OCC(=O)Nc2ccc3c(c2)c(=O)ncn3-c2cccc(C)c2)cc1 [7d, N-(4-oxo-1-(m-tolyl)-1,4-dihydroquinazolin-6-yl)-2-(p-tolyloxy)acetamide] | 50.1 ± 1.77 | > 10 | > 10 | > 10 | 206 | – | – | – | – | – | – | –
Cc1cccc(-n2cnc(=O)c3cc(NC(=O)COc4ccc(Cl)cc4)ccc32)c1 [7e, 2-(4-Chlorophenoxy)-N-(4-oxo-1-(m-tolyl)-1,4-dihydroquinazolin-6-yl)acetamide] | 47.6 ± 5.56 | > 10 | > 10 | > 10 | 255 | – | – | – | – | – | – | –
Cc1cccc(-n2cnc(=O)c3cc(NC(=O)COc4ccc(Cl)c(C)c4)ccc32)c1 [7f, 2-(4-Chloro-3-methylphenoxy)-N-(4-oxo-1-(m-tolyl)-1,4-dihydroquinazolin-6-yl)acetamide] | 105 ± 10.3 | > 10 | > 10 | > 10 | 269 | – | – | – | – | – | – | –
Cc1nc(=O)c2cc([N+](=O)[O-])ccc2n1-c1ccccc1 [8a, 2-Methyl-6-nitro-1-phenylquinazolin-4(1H)-one] | > 200 | – | > 10 | > 10 | 260 to 262 | > 10 | – | – | – | – | – | –

SMILES | CC50 at 3 days [1] [µM] | EC50 [2, 5] [µM] | EC50 [3, 6] [µM] | EC50 [4, 7] [µM] | melting point [°C] | EC50 [2] [µM] | activity against GT 2a (HCV GT 2a) | EC50 [3] [µM] | EC50 [4] [µM] | IC50 (NS5B; enzymatic assays) [µM] | IC50 (NS5B; [8]) [µM] | EC50 (HCV GT-1b replicon) [µM]
Cc1cccc(-n2c(C)nc(=O)c3cc([N+](=O)[O-])ccc32)c1 [8b, 2-Methyl-6-nitro-1-(m-tolyl)quinazolin-4(1H)-one] | 151 ± 5.41 | – | > 10 | > 10 | 258 to 260 | > 10 | – | – | – | – | – | –
Cc1nc(=O)c2cc(N)ccc2n1-c1ccccc1 [9a, 6-Amino-2-methyl-1-phenylquinazolin-4(1H)-one] | > 200 | – | > 10 | > 10 | 268 to 270 | > 10 | – | – | – | – | – | –
Cc1cccc(-n2c(C)nc(=O)c3cc(N)ccc32)c1 [9b, 6-Amino-2-methyl-1-(m-tolyl)quinazolin-4(1H)-one] | > 200 | > 10 | > 10 | > 10 | 270 to 273 | – | – | – | – | – | – | –
Cc1nc(=O)c2cc(NC(=O)CCl)ccc2n1-c1ccccc1 [10a, 2-Chloro-N-(2-methyl-4-oxo-1-phenyl-1,4-dihydroquinazolin-6-yl)acetamide] | 87.47 ± 0.24 | > 10 | > 10 | > 10 | 285 | – | – | – | – | – | – | –
Cc1cccc(-n2c(C)nc(=O)c3cc(NC(=O)CCl)ccc32)c1 [10b, 2-Chloro-N-(2-methyl-4-oxo-1-(m-tolyl)-1,4-dihydroquinazolin-6-yl)acetamide] | 177.2 ± 0.03 | > 10 | > 10 | > 10 | 280 | – | – | – | – | – | – | –
Cc1cc(OCC(=O)Nc2ccc3c(c2)c(=O)nc(C)n3-c2ccccc2)ccc1Cl [11c, 2-(4-Chloro-3-methylphenoxy)-N-(2-methyl-4-oxo-1-phenyl-1,4-dihydroquinazolin-6-yl)acetamide] | > 200 | > 10 | > 10 | > 10 | 271 | – | – | – | – | – | – | –
Cc1ccc(OCC(=O)Nc2ccc3c(c2)c(=O)nc(C)n3-c2cccc(C)c2)cc1 [11d, N-(2-Methyl-4-oxo-1-(m-tolyl)-1,4-dihydroquinazolin-6-yl)-2-(p-tolyloxy)acetamide] | 22.7 ± 2.23 | > 1 | > 10 | > 10 | 270 | – | – | – | – | – | – | –
Cc1cccc(-n2c(C)nc(=O)c3cc(NC(=O)COc4ccc(Cl)cc4)ccc32)c1 [11e, 2-(4-Chlorophenoxy)-N-(2-methyl-4-oxo-1-(m-tolyl)-1,4-dihydroquinazolin-6-yl)acetamide] | 36.6 ± 4.19 | 6.24 ± 0.04 | 8.4 ± 0.15 | 15.2 ± 0.29 | 283 | – | no activity | – | – | – | – | –
Cc1cccc(-n2c(C)nc(=O)c3cc(NC(=O)COc4ccc(Cl)c(C)c4)ccc32)c1 [11f, 2-(4-Chloro-3-methylphenoxy)-N-(2-methyl-4-oxo-1-(m-tolyl)-1,4-dihydroquinazolin-6-yl)acetamide] | 27.4 ± 2.71 | > 1 | > 10 | > 10 | 290 | – | – | – | – | – | – | –
COC(=O)N[C@H](C(=O)N1CCC[C@H]1c1nc(-c2ccc(-c3ccc(-c4c[nH]c([C@@H]5CCCN5C(=O)[C@@H](NC(=O)OC)C(C)C)n4)cc3)cc2)c[nH]1)C(C)C [Daclatasvir, reference compound] | 17.7 | 2.66e-05 | – | – | – | – | – | 2.12e-05 | 0.008 ± 0.001 | – | – | –
CCc1ccc(/C=C2\SC(N[C@H](C(=O)O)c3ccc(F)cc3)=NC2=O)o1 [III] | – | – | – | – | – | – | – | – | – | 3 | – | –
CC1CCC(C(=O)N(c2cc(-c3ccccc3)sc2C(=O)O)C(C)C)CC1 (centres unmarked) [IV] | – | – | – | – | – | – | – | – | – | – | 0.028 | –
Cc1ccc(S(=O)(=O)Nc2cc(-c3ccc(F)cc3)sc2C(=O)O)cc1 [I] | – | – | – | – | – | – | – | – | – | – | 0.29 | –
O=c1ncn(Cc2c(F)cc(F)cc2F)c2ccc(Oc3cccc(-c4ccccn4)c3C(F)(F)F)cc12 [VIII] | – | – | – | – | – | – | – | – | – | – | – | 0.31
CC1CCC(C(=O)N(c2ccc(Oc3ncccc3C(F)(F)F)cc2C(=O)O)C(C)C)CC1 (centres unmarked) [VI] | – | – | – | – | – | – | – | – | – | – | 0.08 | 0.095
Cc1ccc(S(=O)(=O)Nc2ccc(Oc3ccccc3)cc2C(=O)O)cc1 [V] | – | – | – | – | – | – | – | – | – | – | 0.22 | > 30
